pIC50: −log10 of the molar value. Converted amounts (≈) assume the structure as drawn.
Assays:
[1] = target: recombinant Pseudomonas aeruginosa LpxC (Pseudomonas aeruginosa (strain ATCC 15692 / DSM 22644 / CIP 104116 / JCM 14847 / LMG 12228 / 1C / PRS 101 / PAO1), UniProt P47205); experiment: Inhibition of LpxC enzymatic activity (fluorescamine assay); assay type: biochemical; settings: recombinant P. aeruginosa LpxC 5 nM, substrate 10 μM, 25° C., 120 minutes; read-out: IC50
Summary of the method: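 Recombinant P. aeruginosa LpxC (5 nM) with substrate UDP-3-O-(R-3-hydroxydecanoyl)-GlcNAc (10 μM), 120 min at 25 °C; compound 8 points, 4-fold dilution, 0.61-10,000 nM. Product detected by fluorescamine (ex 390/em 495 nm) after stopping with pH 8.0 phosphate; % inhibition versus DMSO control.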

E. coli ATCC 25922 = experiment: Antibacterial activity, MIC by broth microdilution (CLSI); assay type: cell-based; settings: Escherichia coli, ATCC25922; E. coli ATCC 25922, 35° C., 18 to 24 hours; read-out: MIC(E. coli)
Summary of the method: (§1)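 Broth microdilution per CLSI, compound at 64-0.06 μg/mL final in twofold steps (1% DMSO from 100× working solutions). Inoculum 5×10^5 cfu/ml; plates incubated at 35° C for 18-24 hours.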

K. pneumoniae ATCC13883 = experiment: as above; assay type: cell-based; settings: Klebsiella pneumoniae; K. pneumoniae ATCC13883, 35° C., 18 to 24 hours; read-out: MIC(K. Pneumoniae)
Summary of the method: as §1

[2] = Pharmacokinetic assay in mice; assay type: in vivo; settings: ICR mice, 15 mg/kg, IV; for AUC(0-inf) / clearance / half-life / Vd: male, mouse, plasma; for AUC(0-inf): read-out: Area under curve AUC0-∞; for clearance: read-out: Clearance CL; for half-life: read-out: Half life T½ (converted); for Vd: read-out: Volume of distribution Vdss
Experimental: ICR mice were used as test animals. The injected compounds 17 and 32 of the present disclosure were measured using the LC/MS/MS method to determine the drug concentrations in plasma at different times, in order to study the pharmacokinetic characteristics of the compounds of the present disclosure in mice.
ICR mice, male, weighing 27.8-38 g, were purchased from VitalRiver Laboratory Animal Technology Co., Ltd.
An appropriate amount of the pharmaceutical compound was weighed, added with an appropriate amount of 10% HP-β-CD, vortexed, sonicated for 20 minutes to dissolve the particles, and filtered (PTFE, […]) to obtain […] of a colorless solution.
ICR mice were divided into groups of injection of each test compound (nine mice in each group), fasted overnight, then administered by injection (IV, at an amount of 15 mg/kg and a volume of 5 mL/kg), and fed 4 hours after administration.
About 0.1 mL of blood was collected from the orbit before administration and 0.083 hours, 0.25 hours, 0.5 hours, 1 hour, 2 hours, 4 hours, 8 hours, 12 hours and 24 hours after administration. The whole blood samples were placed in EDTA-K2-containing anticoagulant tubes. After collected, the blood samples were placed on ice, and centrifuged to separate plasma (centrifugation conditions: 1500 g, 10 minutes). The collected plasma was stored at −40 to −20° C. before analysis.
The content of the compound to be tested in the plasma of mice after injection was determined using LC-MS/MS.

[3] = test system: Klebsiella pneumoniae ATCC 51504; assay type: in vivo, CD-1 female mice; settings: CD-1 mice; for Change in the body weight of the mice / Reduction of total bacterial load of Klebsiella pneumoniae ATCC 51504 in the lungs compared with the control group: 150 mg/kg intravenous; for Bacterial load in lung, LOG (CFU/mouse), Mean: 150 mg/kg intravenous 2 hours after infection, lungs taken 24 hours after infection
Experimental: The efficacy of the compounds of the present disclosure against pulmonary infection caused by Klebsiella pneumoniae ATCC 51504 was determined by the following method. The experimental process is briefly described as follows: The experimental day of inoculating Klebsiella pneumoniae ATCC 51504 was defined as Day 0. On Day −4 and Day −1, CD-1 female mice (6-8 weeks old, purchased from VitalRiver Experimental Animal Technology Co., Ltd., divided into 3 groups, 5 animals in each group) were intraperitoneally injected with cyclophosphamide to induce an immunosuppressive state in mice. Klebsiella pneumoniae ATCC 51504 cells were cultured in advance on a Muaeller-Hinton agar culture plate in a 37° C. incubator overnight. The single colonies were collected, suspended in physiological saline, and adjusted to the required concentration using a turbidity meter. CD-1 female mice were inoculated via intranasal instillation. Each mouse was inoculated with 50 μL of bacterial solution, with an inoculation volume of 1×10^7 CFU/mouse. Two hours after infection, CD-1 female mice were intravenously administered with compound 17 and compound 32 at 150 mg/kg (solvent: 10% HP-β-CD in Sterile Water for Injection). 24 hours after infection, CD-1 female mice were euthanized. The lung tissue was taken, homogenized with physiological saline, and then diluted 10 times in a gradient for a total of 5 times. Then, 10 μL of lung tissue homogenate of each dilution ratio was taken, and inoculated into bacterial culture plates, which were incubated in a 37° C. incubator overnight, then photographed and saved. A culture plate with an appropriate dilution ratio was selected to count the number of colonies and calculate the bacterial load in the lung tissue to evaluate the efficacy of the drug in inhibiting bacteria. The determination results of the efficacy of the compounds of the present disclosure on pulmonary infection caused by Klebsiella pneumoniae are shown in Tables 4 and 5 below.

Row | SMILES | pIC50 [1] | MIC (E. coli ATCC 25922) | MIC (K. pneumoniae ATCC13883) | Pharmacokinetic properties (conclusion) [2] | AUC(0-inf) [2] | clearance [2] | half-life [2] | Vd [2] | Change in the body weight of the mice [3] | Reduction of total bacterial load of Klebsiella pneumoniae ATCC 51504 in the lungs compared with the control group [3] | Bacterial load in lung, LOG (CFU/mouse), Mean [3]
1 | C[C@H](O)c1nccn1Cc1cc(-c2ccc(C#Cc3ccc(CN4CCC(C(=O)O)CC4)cc3)cc2)on1 [Example 17, (S)-1-(4-((4-(3-((2-(1-hydroxyethyl)-1H-imidazol-1-yl)methyl)isoxazol-5-yl)phenyl)ethynyl)benzyl)piperidin-4-carboxylic acid] | 8.17 | 4 µg/mL (≈ 7.83 µM) | 8 µg/mL (≈ 15.7 µM) | good pharmacokinetic properties | 22500 ng·h/mL | 11.1 mL/min/kg | 1.3 h | 0.48 L/kg | no significant change | 4.78 log value | 4.17 LOG (CFU/mouse)
2 | C[C@H](O)c1nccn1Cc1cc(-c2ccc(C#Cc3ccc(CN4CC(CC(=O)O)C4)cc3)cc2)on1 [Example 32, (S)-2-(1-(4-((4-(3-((2-(1-hydroxyethyl)-1H-imidazol-1-yl)methyl)isoxazol-5-yl)phenyl)ethynyl)benzyl)azetidin-3-yl)acetic acid] | 7.70 | 2 µg/mL (≈ 4.03 µM) | 4 µg/mL (≈ 8.06 µM) | good pharmacokinetic properties | 20300 ng·h/mL | 12.3 mL/min/kg | 1.21 h | 0.612 L/kg | no significant change | 4.24 log value | 4.42 LOG (CFU/mouse)

From US20240382465A1, “AROMATIC ACETYLENE DERIVATIVE, AND PREPARATION METHOD THEREFOR AND USE THEREOF” (priority 2021, published 2024)
